IC50 data for four compounds are collected here from patent publication US8017607B2, “N-substituted-pyrrolidines as inhibitors of MDM2-P-53 interactions” (Hoffmann-La Roche Inc., priority 2009, dated 2011).

As usually defined, the IC50 is the concentration at which inhibition is half-maximal.

Chain of interaction between p53 and MDM2 proteins (recombinant GST-tagged MDM2, biotinylated p53 peptide) (Q00987 whole entry): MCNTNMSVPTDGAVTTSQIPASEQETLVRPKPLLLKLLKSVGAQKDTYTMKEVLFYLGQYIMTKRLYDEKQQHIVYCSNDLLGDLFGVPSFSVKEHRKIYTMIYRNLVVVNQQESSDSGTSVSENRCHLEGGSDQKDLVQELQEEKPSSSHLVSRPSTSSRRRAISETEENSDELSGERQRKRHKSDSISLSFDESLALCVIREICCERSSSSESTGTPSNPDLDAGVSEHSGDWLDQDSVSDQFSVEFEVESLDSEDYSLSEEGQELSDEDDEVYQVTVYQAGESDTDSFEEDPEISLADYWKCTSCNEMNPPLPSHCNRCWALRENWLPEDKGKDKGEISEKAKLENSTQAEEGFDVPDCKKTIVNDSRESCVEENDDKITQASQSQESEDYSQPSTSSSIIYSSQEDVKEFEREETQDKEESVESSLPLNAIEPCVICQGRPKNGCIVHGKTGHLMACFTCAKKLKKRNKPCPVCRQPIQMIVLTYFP

The experiment has as its target interaction between p53 and MDM2 proteins (recombinant GST-tagged MDM2, biotinylated p53 peptide) (Homo sapiens, UniProt Q00987). The experiment can be described thus: HTRF assay of inhibition of the p53-MDM2 interaction. It counts as binding. The conditions noted are these: bsa: 0.02%. The protocol: The ability of the compounds to inhibit the interaction between p53 and MDM2 proteins was measured by an HTRF (homogeneous time-resolved fluorescence) assay in which recombinant GST-tagged MDM2 binds to a peptide that resembles the MDM2-interacting region of p53 (Lane et al.). Binding of GST-MDM2 protein and p53-peptide (biotinylated on its N-terminal end) is registered by the FRET (fluorescence resonance energy transfer) between Europium (Eu)-labeled anti-GST antibody and streptavidin-conjugated Allophycocyanin (APC).
[…] Add 10 uL diluted compounds (1:5 dilution in reaction buffer) to each well, mix by shaking. Add 20 uL biotinylated p53 peptide (180 nM working solution) in reaction buffer to each well and mix on shaker. Incubate at 37° C. for 1 h. Add 20 uL streptavidin-APC and Eu-anti-GST antibody mixture (6 nM Eu-anti-GST and 60 nM streptavidin-APC working solution) in TBS buffer with 0.2% BSA, shake at room temperature for 30 minutes and read using a TRF-capable plate reader at 665 and 615 nm (Victor 5, Perkin ElmerWallac). If not specified, the reagents were purchased from Sigma Chemical Co.
Background: Time-resolved FRET reads energy transfer from a long-lived donor to a nearby acceptor.
Consider `CC(C)(C)C[C@@H]1CN(C(=O)NCC[C@H](O)CO)[C@H](c2cccc(Cl)c2F)[C@@]1(C#N)c1ccc(Cl)cc1F` (mixture of isomers) [Example 4, rac-(2S,3S,4S)-2-(3-chloro-2-fluoro-phenyl)-3-(4-chloro-2-fluoro-phenyl)-3-cyano-4-(2,2-dimethyl-propyl)-pyrrolidine-1-carboxylic acid ((S)-3,4-dihydroxy-butyl)-amide], for which the half-maximal inhibitory concentration (IC50) stood at 0.269 µM.

Take `CC(C)(C)C[C@@H]1CN(C(=O)c2ccc(C(=O)O)cc2)[C@H](c2cccc(Cl)c2F)[C@@]1(C#N)c1ccc(Cl)cc1F` (racemic) [Example 12, rac-4-[(2S,3S,4S)-2-(3-chloro-2-fluoro-phenyl)-3-(4-chloro-2-fluoro-phenyl)-3-cyano-4-(2,2-dimethyl-propyl)-pyrrolidine-1-carbonyl]-benzoic acid]: the IC50 was determined as 0.644 µM.

For the compound `CC(C)(C)C[C@@H]1CN(C(=O)Nc2cccc(-c3nnn[nH]3)c2)[C@H](c2cccc(Cl)c2F)[C@@]1(C#N)c1ccc(Cl)cc1F` (racemic) [Example 16, rac-(2S,3S,4S)-2-(3-chloro-2-fluoro-phenyl)-3-(4-chloro-2-fluoro-phenyl)-3-cyano-4-(2,2-dimethyl-propyl)-pyrrolidine-1-carboxylic acid [3-(1H-tetrazol-5-yl)-phenyl]-amide], the IC50 turned out to be 3.23 µM. The same measure for `CC(C)(C)C[C@@H]1CN(C(=O)Nc2ccncc2)[C@H](c2cccc(Cl)c2F)[C@@]1(C#N)c1ccc(Cl)cc1F` (racemic) [Example 48, rac-(2S,3S,4S)-2-(3-chloro-2-fluoro-phenyl)-3-(4-chloro-2-fluoro-phenyl)-3-cyano-4-(2,2-dimethyl-propyl)-pyrrolidine-1-carboxylic acid pyridin-4-ylamide]: 1.73 µM.
